# Experimental data taken from patent US20150105252A1, “SUBSTITUTED PYRAZOLES AS HERBICIDES” (E I DU PONT DE NEMOURS AND COMPANY, priority 2013, published 2015).
# Tests used:
# foxtail, giant = experiment: Test C postemergence; assay type: in vivo, Setaria faberii; details: for Plant response rating (scale of 0 to 100 where 0 is no effect and 100 is complete control), Foxtail, Giant: Postemergence, 31 g ai/ha, visually evaluated after 13 to 15 days; for Foxtail, Giant plant response rating / Plant response rating, Foxtail, Giant: postemergence; for Foxtail, Giant plant response rating: 62 g ai/ha, scale 0 to 100
# Procedure, shortened: (§1)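 Seeds were sown in a loam soil–sand blend and sprayed preemergence with compounds formulated in a non-phytotoxic solvent mixture containing surfactant. Postemergence plants, grown in peat/vermiculite medium to 2–18 cm (1- to 4-leaf stage), received the same formulation. After 13 to 15 days in a greenhouse, injury was rated visually against controls (0 = no effect, 100 = complete control).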
# wheat [1] = experiment: Test C preemergence; assay type: in vivo, Triticum aestivum
# Procedure, shortened: as §1
# corn = experiment: Test C postemergence; assay type: in vivo, Zea mays; details: for Plant response rating (scale of 0 to 100 where 0 is no effect and 100 is complete control), Corn: Postemergence, 31 g ai/ha, visually evaluated after 13 to 15 days; for Corn plant response rating / Plant response rating, Corn: postemergence; for Corn plant response rating: 62 g ai/ha, scale 0 to 100
# Procedure, shortened: as §1
# barnyardgrass [2] = experiment: Test C postemergence; assay type: in vivo, Echinochloa crus-galli; details: for Plant response rating (scale of 0 to 100 where 0 is no effect and 100 is complete control), Barnyardgrass: Postemergence, 31 g ai/ha, visually evaluated after 13 to 15 days; for Barnyardgrass plant response rating / Plant response rating, Barnyardgrass: postemergence; for Barnyardgrass plant response rating: 62 g ai/ha, scale 0 to 100
# Procedure, shortened: as §1
# wheat [3] = experiment: Test C postemergence; assay type: in vivo, Triticum aestivum; details: for Wheat plant response rating / Plant response rating, Wheat: postemergence; for Wheat plant response rating: scale 0 to 100
# Procedure, shortened: as §1
# morningglory = experiment: Test C postemergence; assay type: in vivo, Ipomoea coccinea; details: for Plant response rating (scale of 0 to 100 where 0 is no effect and 100 is complete control), Morningglory: Postemergence, 31 g ai/ha, visually evaluated after 13 to 15 days; for Morningglory plant response rating / Plant response rating, Morningglory: postemergence; for Morningglory plant response rating: 62 g ai/ha, scale 0 to 100
# Procedure, shortened: as §1
# chickweed = experiment: Test C postemergence; assay type: in vivo, Stellaria media; details: for Plant response rating (scale of 0 to 100 where 0 is no effect and 100 is complete control), Chickweed: Postemergence, 31 g ai/ha, visually evaluated after 13 to 15 days; for Chickweed plant response rating / Plant response rating, Chickweed: postemergence; for Chickweed plant response rating: 62 g ai/ha, scale 0 to 100
# Procedure, shortened: as §1
# lambsquarters [4] = experiment: Test C postemergence; assay type: in vivo, Chenopodium album; details: for Plant response rating (scale of 0 to 100 where 0 is no effect and 100 is complete control), Lambsquarters: Postemergence, 31 g ai/ha, visually evaluated after 13 to 15 days; for Lambsquarters plant response rating / Plant response rating, Lambsquarters: postemergence; for Lambsquarters plant response rating: 62 g ai/ha, scale 0 to 100
# Procedure, shortened: as §1
# barnyardgrass [5] = experiment: Test B flood; assay type: in vivo, Echinochloa crus-galli; details: 250 g ai/ha, visual rating on 0 to 100 scale (0 no effect, 100 complete control), 13 to 15 days
# Procedure, shortened: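 Paddy-water application: seedlings at 2-leaf stage, flood depth 3 cm maintained for the test duration. Evaluation after 13–15 days in the greenhouse by eye relative to controls; 0–100 scale.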
# kochia = experiment: Test C postemergence; assay type: in vivo, Kochia scoparia; details: for Plant response rating (scale of 0 to 100 where 0 is no effect and 100 is complete control), Kochia: Postemergence, 31 g ai/ha, visually evaluated after 13 to 15 days; for Kochia plant response rating / Plant response rating, Kochia: postemergence; for Kochia plant response rating: 62 g ai/ha, scale 0 to 100
# Procedure, shortened: as §1
# lambsquarters [6] = experiment: Test C preemergence; assay type: in vivo, Chenopodium album; details: for Lambsquarters plant response rating: preemergence
# Procedure, shortened: as §1
# velvetleaf = experiment: Test C preemergence; assay type: in vivo, Abutilon theophrasti
# Procedure, shortened: as §1
# crabgrass, large = experiment: Test A postemergence; assay type: in vivo, Digitaria sanguinalis
# Procedure, shortened: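 Scoring was visual, on a scale where 100 means complete control and 0 means no effect, comparing treated with untreated plants around 10 days post-application. Compounds in surfactant-containing non-phytotoxic solvent were sprayed onto soil preemergence or onto one- to two-leaf seedlings (2–10 cm) postemergence.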
# [7] = 250 g ai/ha, scale 0 to 100 (0 no effect, 100 complete control)
# [8] = 125 g ai/ha, scale 0 to 100, 0 no effect, 100 complete control
# [9] = preemergence, 31 g ai/ha, visual rating, scale 0 to 100 (0 no effect, 100 complete control), 13 to 15 days
# [10] = preemergence, 62 g ai/ha, scale 0 to 100 (0 no effect, 100 complete control), 13 to 15 days
# [11] = preemergence, 125 g ai/ha, scale 0 to 100, 0 is no effect, 100 is complete control
# [12] = preemergence, 125 g ai/ha, 13 to 15 days, scale 0 to 100, 0 = no effect, 100 = complete control
# [13] = preemergence, 250 g ai/ha, scale 0 to 100, 0 is no effect, 100 is complete control
compound,measurement,setting,value
CCc1cc(C(=O)NOC(C)C)nn1Cc1ccnc(OC(F)F)c1 [Compound 126],"Plant response rating (scale of 0 to 100 where 0 is no effect and 100 is complete control), Foxtail, Giant","foxtail, giant",10
same,"Foxtail, Giant plant response rating","foxtail, giant",20
same,"Plant response rating, Foxtail, Giant","foxtail, giant; [7]",60
same,"Plant response rating, Foxtail, Giant","foxtail, giant; [8]",20
same,"Plant response rating (scale of 0 to 100), Wheat","wheat [1]; Preemergence, 250 g ai/ha",90
same,Wheat plant response rating,wheat [1]; [9],45
same,Wheat plant response rating,wheat [1]; [10],80
same,Wheat plant response rating,wheat [1]; [11],90
same,"Plant response rating (scale of 0 to 100 where 0 is no effect and 100 is complete control), Corn",corn,5
same,Corn plant response rating,corn,10
same,"Plant response rating, Corn",corn; [7],55
same,"Plant response rating, Corn",corn; [8],35
same,"Plant response rating (scale of 0 to 100 where 0 is no effect and 100 is complete control), Barnyardgrass",barnyardgrass [2],5
same,Barnyardgrass plant response rating,barnyardgrass [2],5
same,"Plant response rating, Barnyardgrass",barnyardgrass [2]; [7],40
same,"Plant response rating, Barnyardgrass",barnyardgrass [2]; [8],10
same,"Plant response rating (scale of 0 to 100 where 0 is no effect and 100 is complete control), Wheat","wheat [3]; Postemergence, 31 g ai/ha, visually evaluated after 13 to 15 days",5
same,Wheat plant response rating,wheat [3]; 62 g ai/ha,5
same,"Plant response rating, Wheat",wheat [3]; [7],5
same,"Plant response rating, Wheat",wheat [3]; [8],5
same,"Plant response rating (scale of 0 to 100 where 0 is no effect and 100 is complete control), Morningglory",morningglory,40
same,Morningglory plant response rating,morningglory,60
same,"Plant response rating, Morningglory",morningglory; [7],80
same,"Plant response rating, Morningglory",morningglory; [8],80
same,"Plant response rating (scale of 0 to 100 where 0 is no effect and 100 is complete control), Chickweed",chickweed,60
same,Chickweed plant response rating,chickweed,70
same,"Plant response rating, Chickweed",chickweed; [7],85
same,"Plant response rating, Chickweed",chickweed; [8],80
same,"Plant response rating (scale of 0 to 100 where 0 is no effect and 100 is complete control), Lambsquarters",lambsquarters [4],35
same,Lambsquarters plant response rating,lambsquarters [4],70
same,"Plant response rating, Lambsquarters",lambsquarters [4]; [7],90
same,"Plant response rating, Lambsquarters",lambsquarters [4]; [8],80
same,"Plant response rating, Barnyardgrass",barnyardgrass [5],40
same,"Plant response rating (scale of 0 to 100 where 0 is no effect and 100 is complete control), Kochia",kochia,55
same,Kochia plant response rating,kochia,50
same,"Plant response rating, Kochia",kochia; [7],65
same,"Plant response rating, Kochia",kochia; [8],65
same,"Plant response rating (scale of 0 to 100), Lambsquarters","lambsquarters [6]; Preemergence, 250 g ai/ha",100
same,Lambsquarters plant response rating,"lambsquarters [6]; 31 g ai/ha, visual rating, scale 0 to 100 (0 no effect, 100 complete control), 13 to 15 days",85
same,Lambsquarters plant response rating,"lambsquarters [6]; 62 g ai/ha, scale 0 to 100 (0 no effect, 100 complete control), 13 to 15 days",98
same,Lambsquarters plant response rating,"lambsquarters [6]; 125 g ai/ha, scale 0 to 100, 0 is no effect, 100 is complete control",100
same,"Plant response rating (scale of 0 to 100), Velvetleaf","velvetleaf; Preemergence, 250 g ai/ha",100
same,Velvetleaf plant response rating,velvetleaf; [9],65
same,Velvetleaf plant response rating,velvetleaf; [10],85
same,Velvetleaf plant response rating,velvetleaf; [11],100
CCCc1cc(C(=O)NC(C)C)nn1Cc1cc(C(F)(F)F)nn1C [Compound 201],"Plant response rating (scale of 0 to 100 where 0 is no effect and 100 is complete control), Foxtail, Giant","foxtail, giant",10
same,"Foxtail, Giant plant response rating","foxtail, giant",10
same,"Plant response rating, Foxtail, Giant","foxtail, giant; [7]",85
same,"Plant response rating, Foxtail, Giant","foxtail, giant; [8]",30
same,Wheat plant response rating,wheat [1]; [9],80
same,Wheat plant response rating,wheat [1]; [10],85
same,"Plant response rating, Wheat",wheat [1]; [12],90
same,Wheat plant response rating,wheat [1]; [13],90
same,"Plant response rating (scale of 0 to 100 where 0 is no effect and 100 is complete control), Corn",corn,10
same,Corn plant response rating,corn,10
same,"Plant response rating, Corn",corn; [7],60
same,"Plant response rating, Corn",corn; [8],15
same,"Crabgrass, Large plant response rating","crabgrass, large; Postemergence, 500 g ai/ha, 0 to 100 scale (0 no effect, 100 complete control)",100
same,"Crabgrass, Large plant response rating","crabgrass, large; postemergence, 125 g ai/ha, about 10 days, visual rating on 0 to 100 scale (0 no effect, 100 complete control)",90
same,"Plant response rating (scale of 0 to 100 where 0 is no effect and 100 is complete control), Barnyardgrass",barnyardgrass [2],5
same,Barnyardgrass plant response rating,barnyardgrass [2],10
same,"Plant response rating, Barnyardgrass",barnyardgrass [2]; [7],60
same,"Plant response rating, Barnyardgrass",barnyardgrass [2]; [8],35
same,"Plant response rating, Wheat",wheat [3]; [7],10
same,Wheat plant response rating,wheat [3],5
same,"Plant response rating (scale of 0 to 100 where 0 is no effect and 100 is complete control), Morningglory",morningglory,80
same,Morningglory plant response rating,morningglory,95
same,"Plant response rating, Morningglory",morningglory; [7],98
same,"Plant response rating, Morningglory",morningglory; [8],85
same,"Plant response rating (scale of 0 to 100 where 0 is no effect and 100 is complete control), Chickweed",chickweed,75
same,Chickweed plant response rating,chickweed,80
same,"Plant response rating, Chickweed",chickweed; [7],85
same,"Plant response rating, Chickweed",chickweed; [8],85
same,"Plant response rating (scale of 0 to 100 where 0 is no effect and 100 is complete control), Lambsquarters",lambsquarters [4],65
same,Lambsquarters plant response rating,lambsquarters [4],80
same,"Plant response rating, Lambsquarters",lambsquarters [4]; [7],95
same,"Plant response rating, Lambsquarters",lambsquarters [4]; [8],90
same,"Plant response rating, Barnyardgrass",barnyardgrass [5],70
same,"Plant response rating (scale of 0 to 100 where 0 is no effect and 100 is complete control), Kochia",kochia,85
same,Kochia plant response rating,kochia,85
same,"Plant response rating, Kochia",kochia; [7],90
same,"Plant response rating, Kochia",kochia; [8],90
same,Velvetleaf plant response rating,velvetleaf; [9],90
same,Velvetleaf plant response rating,velvetleaf; [10],100
same,"Plant response rating, Velvetleaf",velvetleaf; [12],100
same,Velvetleaf plant response rating,velvetleaf; [13],100
